How the values were obtained:
A-549 cells = test: Sub-G1 fraction by PI flow cytometry, A-549; assay type: cell-based, human; settings: A-549, 50 µM, 72 h
Experimental: Figure 2 Effect of eurochevalierine on cell cycle distribution. Cells were treated with 50 µM eurochevalierine for 72 h and then stained with propidium iodide (PI), and DNA content was measured by flow cytometry. (a) Cell cycle distribution profile in A-549 cells. Results of three independent experiments are represented on the same graph. (b) Quantification of the number of cells in sub-G1 fraction as a percentage of the total cell population. Results are expressed as mean ± SD of at least three independent experiments.
Cells were collected, fixed, and stained with the APO AF TUNEL detection kit (BD, Erembodegem, Belgium) allowing analysis of both apoptosis and cell cycle at the same time. The experiment was conducted accordingly to the procedure of the manufacturer. Data were obtained through flow cytometry with a Cell Lab Quanta apparatus (Analis, Suarlee, Belgium).

[1] = tested on: PBMCs from healthy donors; test: Viability of PBMCs from healthy donors (Trypan Blue exclusion); assay type: cell-based; settings: up to 48 h, up to 100 µM
Experimental: The viability of PBMCs from healthy donors was assessed after 24 and 48 h of treatment at the indicated concentration of eurochevalierine. Results correspond to mean ± SD of three independent experiments.
PBMCs were isolated as previously reported.
PBMCs and CD34^+ cells were processed through a semi-automated image-based cell analyzer (Cedex XS Innovatis, Roche, Luxembourg), which provides information about cell concentration and viability based on the Trypan Blue exclusion method.

HDAC1 = HDAC1 (Homo sapiens, UniProt Q13547); test: Selective in vitro HDAC activity assay, recombinant HDAC1; assay type: biochemical; settings: 100 µM
Experimental: (§1) (a) In vitro total HDAC activity was evaluated using K-562 nuclear extracts in the presence of various concentrations of eurochevalierine. (b) Selective in vitro HDAC activity assays were carried out using selected recombinant HDAC proteins in the presence of various concentrations of eurochevalierine. Results are reported as percent of DMSO vehicle control and expressed as the mean ± SD of three independent experiments. * and ** indicate p < 0.05 and p < 0.01 versus untreated cells, respectively.

HDAC3 = HDAC3 (Homo sapiens, UniProt O15379); test: Selective in vitro HDAC activity assay, recombinant HDAC3; assay type: biochemical; settings: 100 µM
Experimental: as §1

U-373 cells = test: Acetylation of sirtuin targets by Western blot, U-373; assay type: cell-based, human; settings: U-373, 5 and 50 µM, 8 h
Experimental: Figure 5 Effect of eurochevalierine on the acetylation status of sirtuin targets. SK-MEL-28, U-373, and A-549 cells were treated with 5 and 50 µM eurochevalierine (EU) for 8 h. Acetylation of histone H4 (AcH4), histone H3 at lysine 56 (AcH3K56), and α-tubulin (Ac α-tubulin) was analyzed via Western blot. β-actin and histone H1 were used as loading controls for the analysis of total and acid extracts, respectively. SAHA (S, 1 µM) was used as a reference HDAC inhibitor. Blots are representative of three independent experiments.
Total proteins were extracted using the MPER® reagent (Thermo-scientific, Erembodegem-Aalst, Belgium) supplemented by 1× protease inhibitor cocktail (Complete EDTA-free, Roche, Prophac, Luxembourg, Luxembourg) according to manufacturer’s instructions. Histones were extracted as previously described. Western blots were carried out as previously reported.
Corresponding secondary antibodies were from Santa Cruz Biotechnology.

[2] = tested on: total HDAC activity (K-562 nuclear extracts); test: In vitro total HDAC activity using K-562 nuclear extracts; assay type: biochemical, human; settings: 100 µM
Experimental: as §1

HDAC6 = molecular target: T1, HDAC6 (Homo sapiens, UniProt Q9UBN7); test: Selective in vitro HDAC activity assay, recombinant HDAC6; assay type: biochemical
T1 sequence (Q9UBN7 1-1215): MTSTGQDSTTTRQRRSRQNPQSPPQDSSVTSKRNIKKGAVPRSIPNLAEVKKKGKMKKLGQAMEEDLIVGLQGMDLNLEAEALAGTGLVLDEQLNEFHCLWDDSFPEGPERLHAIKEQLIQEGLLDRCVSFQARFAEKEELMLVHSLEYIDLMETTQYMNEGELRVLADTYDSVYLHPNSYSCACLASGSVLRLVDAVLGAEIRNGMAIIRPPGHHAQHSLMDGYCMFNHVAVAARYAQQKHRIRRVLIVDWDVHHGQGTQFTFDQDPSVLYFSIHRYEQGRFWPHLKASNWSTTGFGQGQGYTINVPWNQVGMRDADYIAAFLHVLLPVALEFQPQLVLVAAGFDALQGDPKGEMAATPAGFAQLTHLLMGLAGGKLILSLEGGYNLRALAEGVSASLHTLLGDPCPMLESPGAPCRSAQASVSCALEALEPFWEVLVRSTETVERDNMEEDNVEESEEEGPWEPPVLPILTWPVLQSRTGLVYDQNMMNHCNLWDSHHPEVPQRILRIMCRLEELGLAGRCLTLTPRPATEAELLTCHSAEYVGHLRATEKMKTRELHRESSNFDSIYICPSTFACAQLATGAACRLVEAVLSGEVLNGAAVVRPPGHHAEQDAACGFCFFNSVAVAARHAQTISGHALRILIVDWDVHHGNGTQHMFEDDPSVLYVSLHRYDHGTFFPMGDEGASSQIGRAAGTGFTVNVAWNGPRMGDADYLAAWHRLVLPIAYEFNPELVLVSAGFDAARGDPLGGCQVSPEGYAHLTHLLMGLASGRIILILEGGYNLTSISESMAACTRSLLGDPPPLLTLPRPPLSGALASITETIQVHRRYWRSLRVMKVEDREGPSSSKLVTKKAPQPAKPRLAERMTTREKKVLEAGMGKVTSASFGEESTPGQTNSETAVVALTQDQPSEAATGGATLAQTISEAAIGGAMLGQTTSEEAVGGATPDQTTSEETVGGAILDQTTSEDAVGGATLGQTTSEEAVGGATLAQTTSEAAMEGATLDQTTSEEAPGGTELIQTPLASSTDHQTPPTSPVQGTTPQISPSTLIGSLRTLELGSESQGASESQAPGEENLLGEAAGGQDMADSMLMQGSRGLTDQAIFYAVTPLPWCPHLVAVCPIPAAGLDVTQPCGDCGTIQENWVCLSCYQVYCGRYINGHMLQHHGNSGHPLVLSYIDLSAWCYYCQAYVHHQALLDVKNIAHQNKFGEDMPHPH
Experimental: as §1

B16-F10 cells = test: Sub-G1 fraction by PI flow cytometry, B16-F10; assay type: cell-based, murine; settings: B16-F10, 50 µM, 72 h

Chain of HDAC1 (Q13547 whole entry): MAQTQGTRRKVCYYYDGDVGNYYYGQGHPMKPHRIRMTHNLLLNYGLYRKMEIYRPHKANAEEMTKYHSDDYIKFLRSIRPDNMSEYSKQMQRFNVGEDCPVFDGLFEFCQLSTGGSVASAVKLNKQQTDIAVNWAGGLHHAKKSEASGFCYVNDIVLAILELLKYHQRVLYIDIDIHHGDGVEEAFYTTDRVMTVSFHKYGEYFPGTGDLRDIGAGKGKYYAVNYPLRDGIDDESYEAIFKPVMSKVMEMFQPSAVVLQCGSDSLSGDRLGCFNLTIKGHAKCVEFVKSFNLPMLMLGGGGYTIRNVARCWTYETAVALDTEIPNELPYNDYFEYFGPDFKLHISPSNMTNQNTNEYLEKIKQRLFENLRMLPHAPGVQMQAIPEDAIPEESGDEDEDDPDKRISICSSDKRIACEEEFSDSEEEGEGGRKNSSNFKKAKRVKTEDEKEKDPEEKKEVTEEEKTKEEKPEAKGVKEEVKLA
Chain of HDAC3 (O15379 whole entry): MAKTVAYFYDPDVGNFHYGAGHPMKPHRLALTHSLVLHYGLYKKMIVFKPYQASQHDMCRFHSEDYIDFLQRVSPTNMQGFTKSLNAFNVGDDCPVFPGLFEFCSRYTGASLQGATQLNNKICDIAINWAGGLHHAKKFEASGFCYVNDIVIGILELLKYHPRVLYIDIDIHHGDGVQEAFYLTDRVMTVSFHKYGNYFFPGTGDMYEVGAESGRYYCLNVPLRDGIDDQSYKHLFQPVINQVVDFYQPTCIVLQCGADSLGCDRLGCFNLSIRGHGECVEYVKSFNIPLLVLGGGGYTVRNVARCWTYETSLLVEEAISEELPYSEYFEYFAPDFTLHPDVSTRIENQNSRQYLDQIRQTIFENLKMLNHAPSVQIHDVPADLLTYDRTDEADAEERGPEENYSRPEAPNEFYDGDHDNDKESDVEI
Chain of HDAC3 (Q9Y618 395-489 partner limits assumed): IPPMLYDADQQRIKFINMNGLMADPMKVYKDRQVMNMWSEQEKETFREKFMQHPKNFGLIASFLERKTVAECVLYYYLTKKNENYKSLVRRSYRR

C=C(C)[C@@H]1CC[C@@H](C)[C@@]2(O)[C@@H]1C=C(C)[C@@H](OC(C)=O)[C@@H]2OC(=O)[C@H](CC(=O)c1ccccc1NC)NC=O [Eurochevalierine, eurochevalierine]
sub-G1 fraction (A-549 cells): did not increase the sub-G1 fraction | acute toxicity on viability of PBMCs [1]: does not trigger any acute toxicity | effect on HDAC1 deacetylase activity (HDAC1): without effect | induction of HDAC3 activity (HDAC3): 1.5 fold | acetylation of sirtuin targets (AcH4, AcH3K56, Ac α-tubulin) (U-373 cells): robust and dose-dependent increase | inhibition of total HDAC activity [2]: about 33% | inhibition at 100 µM (HDAC6): ~36% | sub-G1 fraction (B16-F10 cells): did not increase the sub-G1 fraction
